Series [1] deals with JAK2V617F bone marrow transduced cells. Briefly: JAK2V617F bone marrow transplant model of polycythemia vera-like disease (spleen weight, blood counts, GFP-positive cells).
Method: Briefly, Balb/c donor mice (6-8 weeks, Charles River, males or females) were treated 5 days prior BM transplant with 5-fluorouracil (150 mg/kg, i.p., Sigma-Aldrich, cat #F6627). Bone marrow cells from donor mice were harvested by flushing femurs and tibias. After red cell lysis (StemCellTechnologies, Grenoble, France, cat #07800), nucleated cells were cultured for 24 hours in transplant medium (RPMI+10% FCS+25 ng/ml IL3 (R&D Systems, Abington, UK, cat #403-ML), 25 ng/ml IL6 (R&D Systems cat #406-ML), and 50 ng/ml Stem Cell Factor (SC F, Bioconcept, Allschwill, Switzerland, cat #D-63120). The next day, cells were plated at 2×10^6cells/ml/well in 6 well plates in the presence of 1 mL of supernatant containing virions from 293T transfected with 10 μg of p-MSCV-JAK2V617F-IRES-GFP vector (modification of original vector p-MSCV vector purchased from Clontech) and 10 μg of pCL-ECO vector (Imgenex, cat #10045P). After two spin-infections (2500 rpm for 90 min at 32° C., Multifuge 1S-R, Heraeus) unselected infected BM cells were resuspended in Hank's balanced salt solution (HBSS) before cell injection (1-3×10^6 depending on infection rate) into the tail vein of lethally irradiated Balb/c female recipient mice (total 9 Gy or 7 Gy) given as two 4.5 or 3.5 Gy doses 4 hours apart) using a BIOBEAM 8000, gamma irradiator (BEBIG GmbH, Germany).
Animals were monitored daily and sacrificed in case of major signs of distress (excessive body weight loss over more than 2 consecutive days without improvement, combined with lethargy and piloerection).
Blood was drawn from the tail vein or at sacrifice from the vena cava with a 20 G needle under isoflurane anesthesia (terminal procedure) and analyzed using an automated complete and differential blood cell counter (capillary mode using dilution 1:5 on a Sysmex blood analyzer, XT2000iV, Sysmex Digitana AG, Norderstedt, Germany). Spleens were weighed to evaluate splenomegaly. Blood, spleens, sterna, and livers were collected for pharmacokinetic, pharmacodynamic.
Ten microliters of whole blood were used to detect circulating GFP-positive cells. Briefly, blood was distributed into a 96-well round bottom plate (Costar, cat #3795) and red blood cells (RBC) were lysed with 200 μl of red blood cell lysis buffer (Sigma, cat #R-7757). After an incubation period of 7 min. in the dark on a plate agitator, cells were centrifuged (5 min., 300 g) and the supernatant discarded by inversion of the plate. After 3 washing steps in FACS buffer (phosphate buffered saline (D-PBS), 3% FBS and 0.02% sodium azide), nucleated cells were resuspended in 200 μl of cold FACS buffer and processed for GFP detection using a LSRII flow cytometer (BD Biosciences, Heidelberg, Germany).
Mice were randomized on day 27 post BMT based on Hct values (67% in average in this experiment, N=9/group) and treated with Compound B (8 mg/kg, 3×/week MWF, i.p.) and Compound A (60 mg/kg, q12h, p.o.) as single agents or combined.
Series [2] concerns Ba/F3 EpoR JAK2V617F-luc clone 8 cells. Briefly: Ba/F3 EpoR JAK2V617F-luc cells-driven leukemic disease mouse model, Xenogen bioluminescence. The format is in vivo. Conditions: for T/C last day (%): (treated/control)·100; for Fractional change in Biolux: biolux last day/first day, mean. On the procedure:
A study is conducted to test the efficacy of the combination of Compound A and Compound B in Scid-beige mice injected i.v. (tail vein) with 1·10^6 Ba/F3 EpoR JAK2V617F-luc clone 8 cells.
• 80 Scid-beige female mice, 18-22 g (8 groups of 7 mice, 24 excluded at time of randomization) • Cells: Ba/F3 EpoR JAK2V617F-luc clone 8 cells. • Whole body Xenogen imaging was performed on days 4, 7, 9 and 11 after cell injection. Randomization of animals into treatment groups was based on bioluminescence (BioL) on day 4 after cell injection. • The mouse model and the protocol is described by Baffert et al., Mol. Cancer Ther; 9(7), 1945, July 2010. Animal and Cell line: • Cell line: Ba/F3EpoR JAK2V617F-luc clone 8 • Gene: JAK2V617F • Cell-Nr./Injection site: 1×10e6 cells in 200 ul/tail i.v. injection • Species: mouse • Strain: CB17/C.B-Igh-l^b/GbmsTac-Prkdc^scid-lyst^bgN7, Taconic farms (complete name Taconic) • Gender: female • Age: […] • Number: 80 mice
Ba/F3 EpoR JAK2V617F-luc cells are grown in RPMI1640 supplemented with 10% FCS, 1% Glutamine, Puromycin (1 ug/mL) and Hygromycin (100 ug/mL). Cells are splited every three days (1:50) not more than two weeks before experiment. The day prior the injection, cells are grown without any antibiotics (to avoid any potential delay in cell growth in vivo).
The day of injection the cells are harvested and resuspended in HBSS buffer (10e6 cells in 200 ul). Cells are injected in tail vein using 27G tuberculin syringe. […]
Bioluminescence are recorded using the Xenogen Camera (non invasive IVIS® Imaging system, Caliper) on day 4, day 7 and 10 post cell injection under isofluran anesthesia (3-5% vol isofluran, 0.8 L/min air flow). Animals are injected i.p. with D-luciferin (Xenogen corporation, ref XR-1001), at 150 mg/kg (10 ml/kg, Nacl). Anesthetized mice are then placed in the imaging chamber for imaging 15 minutes after the luciferin injection.
Animals are randomized on day 4 and treatment started for at least 6 days based on well being of vehicle treated animals.

Series [3] can be described thus: Stability of dosing solution at room temperature. The format is physicochemical. As for the experimental part:
Compound B was administered as the lactate salt by intraveneous or intraperitoneal injection. The lactic salt of Compound B was formulated in isotonic D5W (5% Dextrose; B. Braun, Lot 395147) at a concentration of 1.5 mg/ml, 1 mg/ml and 0.5 mg/ml, respectively. The solution was stable for up to 10 days at room temperature. Treatment was given 3 times a week at a volume of 10 ml/kg. The final equivalent free-base doses were respectively 11.90, 7.94 and 3.97 mg/kg. In the figures, these doses are reported as whole values.
The mono-phosphate salt of Compound A was formulated in 0.5% HPMC (Pharmacoat 603, Dow Chemical Plaqueline, USA) at a concentration of 7.9 mg/ml. Solution was stable at room temperature for 4 days. Treatment was given bid at a volume of 10 ml/kg. The final equivalent free-base dose was 60 mg/kg.

For the next series, the system named is Acetylated Histone H3. The series can be described thus: PD marker acetylated histone H3 by IHC in spleen and bone marrow. In kind it is in vivo, mouse. Conditions: Compound B 8 mg/kg alone or with Compound A 60 mg/kg. An excerpt:
Briefly, the spleen was removed in total, weighed and placed on a dissection tray. The spleen was cut transverse in two halves and two equal pieces were taken from the middle parts using a scalpel. […] Baker, Medite, Switzerland). Fixative volume was at least tenfold in excess compared to tissue volume. […] After a last wash in PBS, the tissues were cut up and set with the surface of interest downwards in a universal histocassette followed by processing in a TPC 15Duo (Tissue Processing Center) for paraffinization. From each tissue paraffin block, several 3 μm thick sections were cut on a sliding or rotary microtome (Mikrom International AG, Switzerland), spread in a 45° C. water-bath, mounted on microscope slides (Polysine, VWR International, Leuven, Belgium), and air-dried in an oven at 37° C. overnight. […] Splenic architecture was evaluated as destroyed (1+) or preserved (0). Presence of myeloid, erythroid and adipocytes cells was evaluated as 0, 1+, 2+, 3+ based on cellularity. […] Whole slide automated quantitative assessment of p-STAT5-positive and -negative cell nuclei were performed using Definiens eCognition software (eCognition version XD 1.5, Definiens AG, Germany). The results were expressed as percent of positive p-STAT5 nuclei out of total nuclei.

Setting [4] is: sacrifice day after 21 days, Compound B 8 mg/kg ip, Compound A 60 mg/kg po q12h, or Combo.
The mark [5] stands for this setting: Compound A 60 mg/kg po twice a day.

Take `N#CC[C@H](C1CCCC1)n1cc(-c2ncnc3[nH]ccc23)cn1` [Compound A, (R)-3-(4-(7H-pyrrolo[2,3-d]pyrimidin-4-yl)-1H-pyrazol-1-yl)-3-cyclopentylpropanenitrile]: in series [1] (setting [4]), the “Hct (%) (mean ± SEM)” value worked out at 59.4%, the “PLT (×10^9/L) (mean ± SEM)” value is reported as 695.9 ×10^9/L and the “Retic counts (×10^12/L) (mean ± SEM)” value is 0.42 ×10^12/L. The “WBC (×10^9/L) (mean ± SEM)” value in series [1] (sacrifice day after 21 days, Compound B 8 mg/kg ip, Compound A 60 mg/kg po q12h, or Combo, all values) is 22.2 ×10^9/L. Moreover, in series [1] (sacrifice day after 21 days, allele burden surrogate, Compound B 8 mg/kg ip, Compound A 60 mg/kg po q12h, or Combo), the “GFP positive circulating cells (%)” value was determined as 34.0%. For the same molecule, the “WBC (×10^9/L), mean without outlier” value in series [1] (sacrifice day, Compound A 60 mg/kg po q12h, value between brackets, 1 outlier excluded) is listed as “(7.46 ×10^9/L”. In series [2] (setting [5]), the “T/C last day (%)” value was determined as 40% and the “Fractional change in Biolux” value is 717. Also, the “Stability of solution at room temperature” value in series [3] (mono-phosphate salt in 0.5% HPMC, 7.9 mg/ml) is reported as 4 days.

Turning to `Cc1[nH]c2ccccc2c1CCNCc1ccc(/C=C/C(=O)NO)cc1` [Compound B, N-hydroxy-3-[4-[[[2-(2-methyl-1H-indol-3-yl)-ethyl]-amino]methyl]phenyl]-2E-2-propenamide], the “Hct (%) (mean ± SEM)” value in series [1] (setting [4]) is 52.2%. Besides, in series [1] (setting [4]), the “Retic counts (×10^12/L) (mean ± SEM)” value is listed as 0.24 ×10^12/L. The “Fractional change in Biolux” value turned out to be 481 in series [2] (Compound B 4 mg/kg ip M/W/F (free-base equivalent)), 351 in series [2] (Compound B 8 mg/kg ip M/W/F) and 204 in series [2] (Compound B 12 mg/kg ip M/W/F). The “T/C last day (%)” value in series [2] (Compound B 4 mg/kg ip M/W/F) came to 27%; in series [2] (Compound B 8 mg/kg ip M/W/F) it was 20%; in series [2] (Compound B 12 mg/kg ip M/W/F), 11%. Further, the “Stability of solution at room temperature” value in series [3] (lactic salt in isotonic D5W (5% Dextrose), 0.5-1.5 mg/ml) is given as “up to 10 days”. The “Acetylated histone H3 (IHC), surrogate readout for deacetylase inhibition” value in the series on Acetylated Histone H3 is reported as “clear increase”.

The values are drawn from US20180085371A1, “COMBINATION OF PANOBINOSTAT AND RUXOLITINIB IN THE TREATMENT OF CANCER SUCH AS A MYELOPROLIFERATIVE NEOPLASM” (Novartis AG, priority 2011, published 2018).
